Reference: publication PMC9972480, “Synthesis of Quinoline and Dihydroquinoline Embelin Derivatives as Cardioprotective Agents” (Journal of Natural Products, 2023)

Key:
[1] = MTT cell viability assay (cytotoxicity) in H9c2 cardiomyocytes; type: cell-based, rat; details: rat, H9c2 cardiomyocytes, 24 h, MTT; for viability at 24 h, 10 µM / viability at 24 h, 20 µM: mean ± SD, n = 3; for IC50 at 24 h: H9c2 cardiomyocytes (embryonic heart-derived cells), stated for both types of cells
Description: (§1) The potential cytotoxicity of embelin (1) together with derivatives (4a–4m, 5a–5d, 6a–6m) was tested in cardiomyocytes and macrophages in order to ensure that compounds lack toxicity also in immune cells. Cell viability was determined by the MTT assay.[58] Four dihydroquinoline derivatives (4b, 4f, 4i, and 4m) and six quinoline compounds (6a, 6d, 6e, 6i, 6k, and 6m) maintained higher viable cell rates in both types of cells. IC50 values of these derivatives were higher than 40 μM and were selected for further analysis.
(§2) J774A.1 murine macrophage cells, H9c2 embryonic rat heart-derived cells, and MCF-7 breast cancer cells were purchased from American Type Cell Culture (ATCC, Manassas, VA, USA). Cells were cultured in Dulbecco’s modified Eagle medium with 10% fetal bovine serum and 1% penicillin/streptomycin (Lonza) and were maintained at 37 °C in a humidified incubator containing 5% CO2.
(§3) Cell viability was assessed by conducting an MTT [3-(4,5-dimethylthiazol-2-yl)-2,5-diphenyltetrazolium bromide dye] assay. Briefly, J 774A.1, H9c2, and MCF7 cells were seeded in 96-well plates for 24 h. Then, cells were treated with DOX in the absence or presence of compounds. MTT (Sigma) reagent was added to the medium for 1 h at 37 °C. Then, the formazan was dissolved in dimethyl sulfoxide (DMSO, 100 μL). Absorbance was measured at 540 nm with a microplate reader (BMG Labtech).

[2] = MTT cell viability assay (cytotoxicity) in J774 macrophages; type: cell-based, murine; details: mouse
Description: as §1, §2, §3

CCCCCCCCCCCC1=C(O)C(=O)C2=C(Nc3ccccc3C2c2ccc(F)cc2)C1=O (stereo not drawn) [Compound 4e, 2-Hydroxy-9-(4-fluorophenyl)-3-undecyl-9,10-dihydroacridine-1,4-dione]
viability at 24 h, 10 µM [1]: 93.4 ± 7.2%
viability at 24 h, 20 µM [1]: 83.7 ± 1.5%
melting point: 140 to 142 °C
viability at 24 h, 10 µM [2]: 57.3 ± 3.8%
viability at 24 h, 20 µM [2]: 44.6 ± 3.3%

CCCCCCCCCCCC1=C(O)C(=O)C2=C(Nc3ccccc3C2c2ccc(Cl)cc2)C1=O (stereo not drawn) [Compound 4c, 2-Hydroxy-9-(4-chlorophenyl)-3-undecyl-9,10-dihydroacridine-1,4-dione]
viability at 24 h, 10 µM [1]: 98.9 ± 3.4%
viability at 24 h, 20 µM [1]: 93.9 ± 2.3%
melting point: 139 to 141 °C
viability at 24 h, 10 µM [2]: 49.1 ± 3.4%
viability at 24 h, 20 µM [2]: 39.5 ± 3.6%

CCCCCCCCCCCC1=C(O)C(=O)C2=C(Nc3ccccc3C2c2cccc(F)c2)C1=O (stereo not drawn) [Compound 4f, 2-Hydroxy-9-(3-fluorophenyl)-3-undecyl-9,10-dihydroacridine-1,4-dione]
IC50 at 24 h [1]: > 40 µM
viability at 24 h, 10 µM [1]: 88.7 ± 5.3%
viability at 24 h, 20 µM [1]: 81.1 ± 2.9%
melting point: 240 to 242 °C
IC50 at 24 h [2]: > 40 µM
viability at 24 h, 10 µM [2]: 99.5 ± 1.3%
viability at 24 h, 20 µM [2]: 97.8 ± 0.6%

CCCCCCCCCCCC1=C(O)C(=O)C2=C(Nc3ccccc3C2c2ccc(C(=O)OC)cc2)C1=O (stereo not drawn) [Compound 4g, Methyl 4-(2-hydroxy-1,4-dioxo-3-undecyl-1,4,9,10-tetrahydroacridin-9-yl)benzoate]
viability at 24 h, 10 µM [1]: 72.6 ± 1.1%
viability at 24 h, 20 µM [1]: 62.1 ± 1.3%
melting point: 146 to 148 °C
viability at 24 h, 10 µM [2]: 31.2 ± 5.3%
viability at 24 h, 20 µM [2]: 29.6 ± 3.9%

CCCCCCCCCCCC1=C(O)C(=O)C2=C(Nc3cc(C)cc(C)c3C2c2ccc([N+](=O)[O-])cc2)C1=O (stereo not drawn) [Compound 4l, 2-Hydroxy-6,8-dimethyl-9-(4-nitrophenyl)-3-undecyl-9,10-dihydroacridine-1,4-dione]
viability at 24 h, 10 µM [1]: 98.2 ± 6.6%
viability at 24 h, 20 µM [1]: 88.3 ± 6.1%
melting point: 260 to 262 °C
viability at 24 h, 10 µM [2]: 46.7 ± 6.6%
viability at 24 h, 20 µM [2]: 33.1 ± 4.5%

CCCCCCCCCCCC1=C(O)C(=O)C=C(Nc2ccc(OC)cc2)C1=O [Compound 5b, 2-Hydroxy-5-((4-methoxyphenyl)amino)-3-undecylcyclohexa-2,5-diene-1,4-dione]
viability at 24 h, 10 µM [1]: 89.3 ± 9.2%
viability at 24 h, 20 µM [1]: 87.4 ± 6.7%
viability at 24 h, 10 µM [2]: 68.4 ± 3.8%
viability at 24 h, 20 µM [2]: 48.3 ± 1.7%

CCCCCCCCCCCC1=C(O)C(=O)c2c(nc3ccccc3c2-c2ccsc2)C1=O [Compound 6h, 2-Hydroxy-9-(thiophen-3-yl)-3-undecylacridine-1,4-dione]
viability at 24 h, 10 µM [1]: 75.3 ± 5%
viability at 24 h, 20 µM [1]: 71.1 ± 2.8%
viability at 24 h, 10 µM [2]: 73.5 ± 2.8%
viability at 24 h, 20 µM [2]: 56.7 ± 3.3%

CCCCCCCCCCCC1=C(O)C(=O)c2c(nc3ccccc3c2-c2ccc(F)cc2)C1=O [Compound 6e, 2-Hydroxy-9-(4-fluorophenyl)-3-undecylacridine-1,4-dione]
IC50 at 24 h [1]: > 40 µM
viability at 24 h, 10 µM [1]: 96.7 ± 8.1%
viability at 24 h, 20 µM [1]: 93.9 ± 0.9%
IC50 at 24 h [2]: > 40 µM
viability at 24 h, 10 µM [2]: 93.1 ± 4.5%
viability at 24 h, 20 µM [2]: 76.6 ± 5.9%

CCCCCCCCCCCC1=C(O)C(=O)C2=C(Nc3ccc(OC)cc3C2c2ccc([N+](=O)[O-])cc2)C1=O (stereo not drawn) [Compound 4k, 2-Hydroxy-7-methoxy-9-(4-nitrophenyl)-3-undecyl-9,10-dihydroacridine-1,4-dione]
viability at 24 h, 10 µM [1]: 99.7 ± 1.1%
viability at 24 h, 20 µM [1]: 90.7 ± 1.5%
melting point: 153 to 155 °C
viability at 24 h, 10 µM [2]: 55.6 ± 6.7%
viability at 24 h, 20 µM [2]: 37.8 ± 4.8%

CCCCCCCCCCCC1=C(O)C(=O)c2c(nc3ccccc3c2-c2ccccc2)C1=O [Compound 6b, 2-Hydroxy-9-phenyl-3-undecylacridine-1,4-dione]
viability at 24 h, 10 µM [1]: 99.7 ± 2.1%
viability at 24 h, 20 µM [1]: 68.1 ± 4.6%
viability at 24 h, 10 µM [2]: 81.8 ± 4.7%
viability at 24 h, 20 µM [2]: 63.9 ± 6.6%

CCCCCCCCCCCC1=C(O)C(=O)c2c(nc3cc(C)cc(C)c3c2-c2ccc([N+](=O)[O-])cc2)C1=O [Compound 6l, 2-Hydroxy-6,8-dimethyl-9-(4-nitrophenyl)-3-undecylacridine-1,4-dione]
viability at 24 h, 10 µM [1]: 64.8 ± 6.7%
viability at 24 h, 20 µM [1]: 55.9 ± 9.4%
viability at 24 h, 10 µM [2]: 82.3 ± 0.3%
viability at 24 h, 20 µM [2]: 63.8 ± 4.8%

CCCCCCCCCCCC1=C(O)C(=O)c2c(nc3ccccc3c2-c2ccc(C)c(C)c2)C1=O [Compound 6i, 2-Hydroxy-9-(3,4-dimethylphenyl)-3-undecylacridine-1,4-dione]
IC50 at 24 h [1]: > 40 µM
viability at 24 h, 10 µM [1]: 99.8 ± 3%
viability at 24 h, 20 µM [1]: 92.6 ± 5.4%
IC50 at 24 h [2]: > 40 µM
viability at 24 h, 10 µM [2]: 93.3 ± 4.3%
viability at 24 h, 20 µM [2]: 75.1 ± 2.9%

CCCCCCCCCCCC1=C(O)C(=O)C=C(Nc2ccccc2)C1=O [Compound 5a, 2-Hydroxy-5-(phenylamino)-3-undecylcyclohexa-2,5-diene-1,4-dione]
viability at 24 h, 10 µM [1]: 99 ± 7.1%
viability at 24 h, 20 µM [1]: 83 ± 7%
viability at 24 h, 10 µM [2]: 56.9 ± 4%
viability at 24 h, 20 µM [2]: 56.2 ± 2%

CCCCCCCCCCCC1=C(O)C(=O)C=C(Nc2ccc(Br)cc2)C1=O [Compound 5c, 5-((4-Bromophenyl)amino)-2-hydroxy-3-undecylcyclohexa-2,5-diene-1,4-dione]
viability at 24 h, 10 µM [1]: 61.9 ± 2.7%
viability at 24 h, 20 µM [1]: 56.1 ± 3.4%
viability at 24 h, 10 µM [2]: 56.9 ± 5.5%
viability at 24 h, 20 µM [2]: 39.4 ± 5.3%

CCCCCCCCCCCC1=C(O)C(=O)C2=C(Nc3ccccc3C2c2ccsc2)C1=O (stereo not drawn) [Compound 4h, 2-Hydroxy-9-(thiophen-3-yl)-3-undecyl-9,10-dihydroacridine-1,4-dione]
viability at 24 h, 10 µM [1]: 92.5 ± 6.6%
viability at 24 h, 20 µM [1]: 75.8 ± 2.3%
melting point: 190 to 192 °C
viability at 24 h, 10 µM [2]: 84.9 ± 2.6%
viability at 24 h, 20 µM [2]: 51.4 ± 2.9%

CCCCCCCCCCCC1=C(O)C(=O)C2=C(Nc3ccccc3C2c2ccccc2)C1=O (stereo not drawn) [Compound 4b, 2-Hydroxy-9-phenyl-3-undecyl-9,10-dihydroacridine-1,4-dione]
IC50 at 24 h [1]: > 40 µM
viability at 24 h, 10 µM [1]: 98.1 ± 6.8%
viability at 24 h, 20 µM [1]: 95.8 ± 7.7%
melting point: 161 to 162 °C
IC50 at 24 h [2]: > 40 µM
viability at 24 h, 10 µM [2]: 99.7 ± 1.1%
viability at 24 h, 20 µM [2]: 98.7 ± 1.2%

CCCCCCCCCCCC1=C(O)C(=O)c2c(nc3ccccc3c2-c2cccc(F)c2)C1=O [Compound 6f, 2-Hydroxy-9-(3-fluorophenyl)-3-undecylacridine-1,4-dione]
viability at 24 h, 10 µM [1]: 98.3 ± 4.9%
viability at 24 h, 20 µM [1]: 84.5 ± 4.3%
viability at 24 h, 10 µM [2]: 79.3 ± 4.6%
viability at 24 h, 20 µM [2]: 62.2 ± 4.3%

CCCCCCCCCCCC1=C(O)C(=O)c2c(nc3ccccc3c2-c2ccc(Cl)cc2)C1=O [Compound 6c, 2-Hydroxy-9-(4-chlorophenyl)-3-undecylacridine-1,4-dione]
viability at 24 h, 10 µM [1]: 95 ± 8.4%
viability at 24 h, 20 µM [1]: 74.3 ± 4.8%
viability at 24 h, 10 µM [2]: 83.4 ± 0.5%
viability at 24 h, 20 µM [2]: 55.8 ± 5.7%

CCCCCCCCCCCC1=C(O)C(=O)C=C(O)C1=O [Compound 1, embelin]
viability at 24 h, 10 µM [1]: 36.9 ± 5.8%
viability at 24 h, 20 µM [1]: 8.3 ± 0.1%
viability at 24 h, 10 µM ([2]; J774 macrophages, 10 μM, 24 h, MTT, mean ± SD, n = 3, read-out: Cell viability (%) J774 macrophages 10 μM): 21.3 ± 2.7%
viability at 24 h, 20 µM ([2]; J774 macrophages, 20 μM, 24 h, MTT, mean ± SD, n = 3, read-out: Cell viability (%) J774 macrophages 20 μM): 15.3 ± 0.8%

CCCCCCCCCCCC1=C(O)C(=O)c2c(nc3ccccc3c2-c2ccc(OC)c(OC)c2)C1=O [Compound 6j, 2-Hydroxy-9-(3,4-dimethoxyphenyl)-3-undecylacridine-1,4-dione]
viability at 24 h, 10 µM [1]: 85.5 ± 6.2%
viability at 24 h, 20 µM [1]: 68.4 ± 8.6%
viability at 24 h, 10 µM [2]: 85.2 ± 3.7%
viability at 24 h, 20 µM [2]: 64 ± 2.6%

CCCCCCCCCCCC1=C(O)C(=O)C2=C(Nc3ccccc3C2c2ccc(Br)cc2)C1=O (stereo not drawn) [Compound 4d, 2-Hydroxy-9-(4-bromophenyl)-3-undecyl-9,10-dihydroacridine-1,4-dione]
viability at 24 h, 10 µM [1]: 99.5 ± 2.7%
viability at 24 h, 20 µM [1]: 98.9 ± 6.1%
melting point: 139 to 140 °C
viability at 24 h, 10 µM [2]: 38.5 ± 5.9%
viability at 24 h, 20 µM [2]: 32.9 ± 3.4%

CCCCCCCCCCCC1=C(O)C(=O)C2=C(Nc3ccccc3C2c2ccc([N+](=O)[O-])cc2)C1=O (stereo not drawn) [Compound 4a, 2-Hydroxy-9-(4-nitrophenyl)-3-undecyl-9,10-dihydroacridine-1,4-dione]
viability at 24 h, 10 µM [1]: 94.8 ± 3.5%
viability at 24 h, 20 µM [1]: 89.4 ± 0.6%
melting point: 164 to 166 °C
viability at 24 h, 10 µM [2]: 50 ± 5.6%
viability at 24 h, 20 µM [2]: 43.7 ± 2%

CCCCCCCCCCCC1=C(O)C(=O)c2c(nc3ccccc3c2-c2ccc(C(=O)OC)cc2)C1=O [Compound 6g, Methyl 4-(2-hydroxy-1,4-dioxo-3-undecyl-1,4-dihydroacridin-9-yl)benzoate]
viability at 24 h, 10 µM [1]: 88.7 ± 10.4%
viability at 24 h, 20 µM [1]: 70.6 ± 3%
viability at 24 h, 10 µM [2]: 78.4 ± 5.7%
viability at 24 h, 20 µM [2]: 42.2 ± 0.3%

CCCCCCCCCCCC1=C(O)C(=O)C=C(Nc2cccc([N+](=O)[O-])c2)C1=O [Compound 5d, 2-Hydroxy-5-((3-nitrophenyl)amino)-3-undecylcyclohexa-2,5-diene-1,4-dione]
viability at 24 h, 10 µM [1]: 67.8 ± 2.1%
viability at 24 h, 20 µM [1]: 57.5 ± 1.4%
viability at 24 h, 10 µM [2]: 65.5 ± 1.9%
viability at 24 h, 20 µM [2]: 50.8 ± 7%
